Data published in article PMC2680961, “Homologous desensitization of signalling by the alpha (α) isoform of the human thromboxane A2 receptor: A specific role for nitric oxide signalling” (Biochimica et Biophysica Acta, 2007).

What was measured:
TP^Δ328 = biological target: T1, TP^Δ328 (Homo sapiens, UniProt P21731); experiment: [3H]SQ29,548 radioligand binding, Scatchard analysis, HEK.TP^Δ328
T1 construct: expressed in transfected cells
T1 sequence (P21731 1-328): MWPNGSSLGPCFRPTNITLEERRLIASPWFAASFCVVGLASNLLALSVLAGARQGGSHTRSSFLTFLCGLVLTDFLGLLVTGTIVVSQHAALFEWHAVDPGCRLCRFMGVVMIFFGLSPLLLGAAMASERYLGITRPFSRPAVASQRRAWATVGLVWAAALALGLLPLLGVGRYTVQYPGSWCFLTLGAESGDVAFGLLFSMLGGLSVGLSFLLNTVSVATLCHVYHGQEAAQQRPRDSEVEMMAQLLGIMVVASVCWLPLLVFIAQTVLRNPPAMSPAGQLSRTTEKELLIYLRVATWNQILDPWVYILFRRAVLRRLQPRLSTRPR
Procedure: Cells were harvested by centrifugation at 500×g at 4 °C for 5 min and washed three times with ice-cold Ca^2+/Mg^2+-free phosphate-buffered saline (PBS). TP radioligand binding assays were carried out at 30 °C for 30 min in 100 μl reactions in the presence of 0–40 nM [^3H] […] Protein determinations were carried out using the Bradford assay.
Radioligand binding and Scatchard analysis data were analysed using GraphPad Prisim V4.0 programme (GraphPad Software Inc., San Diego CA, USA). Statistical analyses were carried out using the unpaired Student's t test using the Statworks Analysis Package. p-values ≤ 0.01 indicated statistically significant differences.

TPα^T337,S340A = biological target: T2, TPα^T337,S340A (Homo sapiens, UniProt P21731, S340A/T337A); experiment: Intracellular calcium mobilization, HEK.TPα^T337,S340A cells; assay type: cell-based
T2 construct: expressed in transfected cells
T2 sequence (P21731 1-343 T337A/S340A): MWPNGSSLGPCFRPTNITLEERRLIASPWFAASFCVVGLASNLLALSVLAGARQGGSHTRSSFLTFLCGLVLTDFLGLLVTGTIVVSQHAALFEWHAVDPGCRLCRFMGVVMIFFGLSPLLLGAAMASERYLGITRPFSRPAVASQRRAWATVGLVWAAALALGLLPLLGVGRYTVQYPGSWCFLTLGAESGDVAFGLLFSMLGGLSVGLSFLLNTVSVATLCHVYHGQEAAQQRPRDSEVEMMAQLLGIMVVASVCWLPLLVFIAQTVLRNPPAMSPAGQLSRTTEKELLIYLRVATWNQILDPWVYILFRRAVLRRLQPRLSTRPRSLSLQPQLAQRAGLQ
Procedure: (§1) Measurement of intracellular calcium mobilization ([Ca^2+]i) in FURA2/AM preloaded HEK 293 cell lines (2 × 10^6 cells/dish), each transiently co-transfected with pADVA (10 μg), and pCMV:Gαq (25 μg), was carried out as previously described. To investigate the effect of GRK2/βARK1 on TP-mediated [Ca^2+]i mobilization, HEK.TPα or HEK.TPβ cells (2 × 10^6 cells/dish) were co-transfected with pADVA (10 μg), pCMV:Gαq (25 μg) along with pRK5:βARK1^495–689 (25 μg), encoding a dominant negative form of GRK2/βARK1[39]. […] For each measurement of [Ca^2+]i mobilization, aliquots of cells were diluted to 0.825 × 10^6 cells/ml in HBSSHB, 1 mM CaCl2 and FURA2 fluorescence was recorded (2 ml aliquots of cells) at 37^ °C with gentle stirring with a Perkin Elmer-Cetus LS50-B spectrofluorometer at excitation wavelengths of 340 nm and 380 nm and emission wavelength of 510 nm, respectively.
Cells were stimulated with the TP agonist U46619 (1 μM) and changes in [Ca^2+]i mobilization were monitored as a function of time. […]
The vehicle had no effect on U46619-mediated [Ca^2+]i mobilization. Calibration of the signal was performed in each sample by adding 0.2% Triton X-100 to obtain the maximal fluorescence ratio (Rmax) and then 1 mM EGTA to obtain the minimal fluorescence ratio (Rmin). […]

TPα^Δ336 = biological target: T3, TPα^Δ336 (Homo sapiens, UniProt P21731); experiment: Intracellular calcium mobilization, HEK.TPα^Δ336 cells; assay type: cell-based; settings: for Δ[Ca2+]i, U46619-induced: HEK.TPα^Δ336
T3 construct: expressed in transfected cells
T3 sequence (P21731 1-335): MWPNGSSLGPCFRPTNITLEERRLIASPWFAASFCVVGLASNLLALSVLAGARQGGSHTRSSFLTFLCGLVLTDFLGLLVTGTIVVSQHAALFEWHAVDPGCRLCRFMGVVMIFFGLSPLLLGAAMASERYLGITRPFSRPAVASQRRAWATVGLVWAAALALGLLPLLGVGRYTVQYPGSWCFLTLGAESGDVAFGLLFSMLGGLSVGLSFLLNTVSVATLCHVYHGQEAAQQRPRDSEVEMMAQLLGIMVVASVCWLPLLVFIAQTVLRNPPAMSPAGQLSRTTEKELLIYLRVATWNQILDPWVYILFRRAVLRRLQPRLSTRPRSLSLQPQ
Procedure: as §1, with “GRK2/βARK1[39]. Approximately 48 h post-transfection, cells were harvested by scraping, washed twice in ice-cold PBS and resuspended in HBSSHB (modified Ca^2+/Mg^2+-free Hank's buffered salt solution, containing […], pH 7.67, 0.1% bovine serum albumin (BSA)) buffer at 10^7 cells/ml and incubated in the dark with 5 μM FURA2/AM for 45 min at 37 °C.” for “GRK2/βARK1[39].”
Cells were stimulated with the TP agonist U46619 (1 μM) and changes in [Ca^2+]i mobilization were monitored as a function of time. To assess agonist-mediated homologous desensitization, cells (0.825 × 10^6 cells/ml; 2 ml per assay) were stimulated with 1 μM U46619 (Primary stimulation) or, as a control, with the vehicle for 4 min; thereafter, cells were collected by centrifugation (900×g, 5 min); were washed twice in 2 ml HBSSHB, 1 mM CaCl2; and finally resuspended in 2 ml HBSSHB,1 mM CaCl2 and were left to recover over various time intervals (ranging from 0 to 60 min); thereafter, cells re-stimulated with 1 μM U46619 (Secondary stimulation) and changes in [Ca^2+]i mobilization were monitored as a function of time. […]

[1] = secondary 1 μM U46619 at 15 min

For O=C(O)CCC/C=C\C[C@@H]1[C@H](CNNC(=O)Nc2ccccc2)[C@H]2CC[C@@H]1O2 [SQ29,548], the “Bmax (pmol/mg protein ± S.E.M.)” value (TP^Δ328) was 4.47 ± 0.04 pmol/mg protein.
CCCCC[C@H](O)/C=C/[C@@H]1[C@@H](C/C=C\CCCC(=O)O)[C@H]2CO[C@@H]1C2 [U46619] was tested, and the “Δ[Ca2+]i, U46619-induced” value (TPα^T337,S340A; primary 1 μM U46619 4 min) was 179 ± 11 nM, the “Δ[Ca2+]i, U46619-induced” value (TPα^T337,S340A; [1]) was 40 ± 3.4 nM and the “Δ[Ca2+]i, U46619-induced” value (TPα^Δ336; primary 1 μM U46619 4 min) was 240 ± 14 nM. For the same molecule, the “Δ[Ca2+]i, U46619-induced” value (TPα^Δ336; [1]) was 50 ± 3.4 nM and the “secondary U46619 [Ca2+]i response relative to primary response” value (TPα^Δ336; TPα^Δ336) was 20%.
